Results reported in ChEMBL document CHEMBL5291721, “A preclinical secondary pharmacology resource illuminates target-adverse drug reaction associations of marketed drugs” (Nat Commun, 2023).

Legend:
[1] = target: T1, Androgen receptor (Rattus norvegicus, UniProt P15207); format: functional
T1 sequence (P15207 whole entry): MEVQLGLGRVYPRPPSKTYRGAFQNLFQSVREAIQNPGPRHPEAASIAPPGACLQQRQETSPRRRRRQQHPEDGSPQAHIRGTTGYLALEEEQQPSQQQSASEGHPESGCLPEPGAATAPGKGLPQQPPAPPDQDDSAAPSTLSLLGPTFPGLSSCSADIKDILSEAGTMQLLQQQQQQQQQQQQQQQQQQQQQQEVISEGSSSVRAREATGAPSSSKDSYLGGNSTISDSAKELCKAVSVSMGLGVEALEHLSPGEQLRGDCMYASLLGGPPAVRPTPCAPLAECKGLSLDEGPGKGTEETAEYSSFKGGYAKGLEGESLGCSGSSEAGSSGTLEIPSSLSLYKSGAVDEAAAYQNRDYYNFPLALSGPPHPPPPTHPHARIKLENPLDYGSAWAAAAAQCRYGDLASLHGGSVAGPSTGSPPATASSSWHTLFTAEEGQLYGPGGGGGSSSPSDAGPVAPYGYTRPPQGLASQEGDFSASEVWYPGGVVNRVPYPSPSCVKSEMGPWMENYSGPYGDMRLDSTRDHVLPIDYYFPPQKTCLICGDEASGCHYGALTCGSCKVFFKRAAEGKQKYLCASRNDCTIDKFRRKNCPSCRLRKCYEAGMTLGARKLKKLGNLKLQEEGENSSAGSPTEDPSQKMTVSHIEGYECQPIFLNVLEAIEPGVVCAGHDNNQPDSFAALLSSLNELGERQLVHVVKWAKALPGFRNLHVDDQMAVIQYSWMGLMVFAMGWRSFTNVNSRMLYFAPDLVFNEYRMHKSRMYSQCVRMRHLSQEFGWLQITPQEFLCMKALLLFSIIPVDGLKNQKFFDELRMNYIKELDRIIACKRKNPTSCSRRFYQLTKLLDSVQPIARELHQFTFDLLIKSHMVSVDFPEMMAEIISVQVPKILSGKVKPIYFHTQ

[2] = target: D(1A) dopamine receptor (Homo sapiens, UniProt P21728)
[3] = target: Cannabinoid receptor 1 (Homo sapiens, UniProt P21554); format: functional
[4] = target: T2, 5-hydroxytryptamine receptor 1A (Homo sapiens, UniProt P08908)
T2 sequence (P08908 whole entry): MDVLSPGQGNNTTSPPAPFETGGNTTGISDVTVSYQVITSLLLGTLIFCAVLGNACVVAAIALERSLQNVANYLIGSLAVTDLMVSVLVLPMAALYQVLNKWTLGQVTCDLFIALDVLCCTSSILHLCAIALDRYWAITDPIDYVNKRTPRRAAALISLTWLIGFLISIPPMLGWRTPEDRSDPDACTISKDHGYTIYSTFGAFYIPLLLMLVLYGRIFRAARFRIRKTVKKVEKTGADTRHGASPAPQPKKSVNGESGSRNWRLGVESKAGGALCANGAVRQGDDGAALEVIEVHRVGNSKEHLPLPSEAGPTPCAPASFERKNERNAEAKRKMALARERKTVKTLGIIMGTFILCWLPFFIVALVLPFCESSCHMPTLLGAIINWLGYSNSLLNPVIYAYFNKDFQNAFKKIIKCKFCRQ

[5] = target: T3, Androgen receptor (Homo sapiens, UniProt P10275)
T3 sequence (P10275 whole entry): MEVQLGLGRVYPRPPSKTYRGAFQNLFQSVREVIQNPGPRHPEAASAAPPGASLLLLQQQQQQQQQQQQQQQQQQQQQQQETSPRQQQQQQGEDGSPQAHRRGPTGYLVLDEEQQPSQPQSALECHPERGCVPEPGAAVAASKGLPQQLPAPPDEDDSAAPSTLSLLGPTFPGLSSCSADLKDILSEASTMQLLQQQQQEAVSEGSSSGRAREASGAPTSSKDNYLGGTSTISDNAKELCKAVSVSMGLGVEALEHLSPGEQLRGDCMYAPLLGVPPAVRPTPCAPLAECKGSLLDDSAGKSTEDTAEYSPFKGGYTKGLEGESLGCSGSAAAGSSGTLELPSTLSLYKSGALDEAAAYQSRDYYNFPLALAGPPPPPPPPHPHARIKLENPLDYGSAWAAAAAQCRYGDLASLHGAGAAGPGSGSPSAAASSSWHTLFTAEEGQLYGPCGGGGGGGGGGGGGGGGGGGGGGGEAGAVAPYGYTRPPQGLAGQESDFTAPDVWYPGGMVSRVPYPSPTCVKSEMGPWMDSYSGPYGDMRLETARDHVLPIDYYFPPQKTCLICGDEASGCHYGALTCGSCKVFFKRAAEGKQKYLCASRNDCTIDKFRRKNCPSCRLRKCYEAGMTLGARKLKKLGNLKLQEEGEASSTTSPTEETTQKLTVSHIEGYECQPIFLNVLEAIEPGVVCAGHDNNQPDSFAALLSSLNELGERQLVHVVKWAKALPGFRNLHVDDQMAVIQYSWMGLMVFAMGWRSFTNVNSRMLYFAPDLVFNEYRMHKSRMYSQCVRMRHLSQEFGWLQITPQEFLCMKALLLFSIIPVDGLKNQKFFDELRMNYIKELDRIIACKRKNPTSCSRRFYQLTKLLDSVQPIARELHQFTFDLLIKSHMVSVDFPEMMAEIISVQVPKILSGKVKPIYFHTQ

[6] = target: T1, Androgen receptor
[7] = target: T4, Estrogen receptor (Homo sapiens, UniProt P03372); format: functional
T4 sequence (P03372 whole entry): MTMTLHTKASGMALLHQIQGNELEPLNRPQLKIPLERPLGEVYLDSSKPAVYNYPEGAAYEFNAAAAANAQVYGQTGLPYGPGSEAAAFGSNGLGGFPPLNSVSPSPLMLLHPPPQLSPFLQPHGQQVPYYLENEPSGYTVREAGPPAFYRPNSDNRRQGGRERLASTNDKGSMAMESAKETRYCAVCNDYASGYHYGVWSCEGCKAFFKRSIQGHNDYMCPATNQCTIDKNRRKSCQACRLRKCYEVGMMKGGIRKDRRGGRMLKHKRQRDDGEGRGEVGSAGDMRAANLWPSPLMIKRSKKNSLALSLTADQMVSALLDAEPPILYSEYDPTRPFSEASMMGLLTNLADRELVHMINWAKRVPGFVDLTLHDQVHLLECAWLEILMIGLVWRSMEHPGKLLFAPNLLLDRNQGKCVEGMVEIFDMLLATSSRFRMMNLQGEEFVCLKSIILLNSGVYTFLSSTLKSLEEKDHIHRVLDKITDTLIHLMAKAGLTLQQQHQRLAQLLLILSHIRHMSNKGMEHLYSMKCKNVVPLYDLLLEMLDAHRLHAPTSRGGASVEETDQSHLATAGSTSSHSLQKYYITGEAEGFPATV

[8] = target: Hydroxycarboxylic acid receptor 2 (Homo sapiens, UniProt Q8TDS4)
Also: assay procedure not described here.

D(1A) dopamine receptor, sequence (P21728 whole entry): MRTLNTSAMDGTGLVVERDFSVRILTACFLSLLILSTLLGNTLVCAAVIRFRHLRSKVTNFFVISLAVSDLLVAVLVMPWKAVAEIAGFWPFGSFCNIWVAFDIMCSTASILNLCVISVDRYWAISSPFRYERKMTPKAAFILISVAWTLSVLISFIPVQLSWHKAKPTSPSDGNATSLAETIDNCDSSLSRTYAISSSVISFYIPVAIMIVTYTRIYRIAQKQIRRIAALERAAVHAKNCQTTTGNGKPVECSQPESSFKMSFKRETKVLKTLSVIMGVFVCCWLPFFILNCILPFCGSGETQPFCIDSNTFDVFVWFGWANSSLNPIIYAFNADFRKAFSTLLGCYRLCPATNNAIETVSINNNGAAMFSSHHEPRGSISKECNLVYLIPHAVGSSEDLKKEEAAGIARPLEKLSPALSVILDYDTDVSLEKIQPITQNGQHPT
Hydroxycarboxylic acid receptor 2, sequence (Q8TDS4 whole entry): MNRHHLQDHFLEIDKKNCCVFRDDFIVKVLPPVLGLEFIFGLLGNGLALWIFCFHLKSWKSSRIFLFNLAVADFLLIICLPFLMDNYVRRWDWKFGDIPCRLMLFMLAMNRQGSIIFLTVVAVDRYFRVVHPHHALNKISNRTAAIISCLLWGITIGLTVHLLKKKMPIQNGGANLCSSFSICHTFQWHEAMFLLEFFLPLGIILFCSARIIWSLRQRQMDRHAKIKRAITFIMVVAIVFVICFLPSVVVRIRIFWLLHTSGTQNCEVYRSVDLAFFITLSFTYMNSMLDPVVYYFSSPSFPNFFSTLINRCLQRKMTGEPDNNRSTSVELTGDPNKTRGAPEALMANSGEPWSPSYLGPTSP
Cannabinoid receptor 1, sequence (P21554 whole entry): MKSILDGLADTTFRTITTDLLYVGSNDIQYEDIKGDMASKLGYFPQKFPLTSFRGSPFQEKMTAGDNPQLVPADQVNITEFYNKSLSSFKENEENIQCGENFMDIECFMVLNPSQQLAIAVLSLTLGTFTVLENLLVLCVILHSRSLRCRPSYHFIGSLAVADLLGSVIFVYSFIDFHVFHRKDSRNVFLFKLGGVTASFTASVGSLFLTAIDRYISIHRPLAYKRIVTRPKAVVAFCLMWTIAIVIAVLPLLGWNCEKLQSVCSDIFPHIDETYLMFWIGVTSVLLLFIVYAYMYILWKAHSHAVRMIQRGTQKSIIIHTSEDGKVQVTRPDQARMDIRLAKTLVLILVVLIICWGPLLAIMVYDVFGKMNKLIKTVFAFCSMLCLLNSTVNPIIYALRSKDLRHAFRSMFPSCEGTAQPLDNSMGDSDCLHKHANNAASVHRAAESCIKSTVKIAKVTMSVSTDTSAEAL

SMILES	AC50 [2] [µM]	AC50 [3] [µM]	AC50 [4] [µM]	AC50 [5] [µM]	other results
COC(=O)N[C@H](C(=O)N1CCC[C@H]1c1nc(-c2ccc(-c3ccc(-c4c[nH]c([C@@H]5CCCN5C(=O)[C@@H](NC(=O)OC)C(C)C)n4)cc3)cc2)c[nH]1)C(C)C					AC50 [1]: > 30 µM
CCOC(=O)[C@H](CCc1ccccc1)N[C@@H](C)C(=O)N1CCC[C@H]1C(=O)O	> 10	> 10	> 10		
Nc1nc(N)c2nc(-c3ccccc3)c(N)nc2n1	> 10	> 10	> 10	> 30	AC50 [6]: > 30 µM; AC50 [1]: > 30 µM
C[C@H]1O[C@H](O[C@H]2[C@H](O)[C@@H](O)[C@@H](O[C@H]3[C@H](O)[C@@H](O)C(O)O[C@@H]3CO)O[C@@H]2CO)[C@H](O)[C@@H](O)[C@@H]1N[C@H]1C=C(CO)[C@@H](O)[C@H](O)[C@H]1O (some centres not stated) [ACARBOSE]	> 10	> 10	> 10		
CC(=O)c1ccc2c(c1)N(CCCN1CCN(CCO)CC1)c1ccccc1S2 [ACETOPHENAZINE]					AC50 [7]: 13 µM
Oc1ncnc2[nH]ncc12 [ALLOPURINOL]	> 10		> 10		AC50 [8]: > 10 µM
CN1CCCC(n2nc(Cc3ccc(Cl)cc3)c3ccccc3c2=O)CC1 (configuration not stated) [AZELASTINE]					AC50 [7]: > 30 µM
O=C1c2c(O)c(=O)ccn2N([C@@H]2c3ccccc3SCc3c2ccc(F)c3F)[C@@H]2COCCN12 [BALOXAVIR]				> 30	
C(=N\NC1=NCCN1)/c1c2ccccc2c(/C=N/NC2=NCCN2)c2ccccc12 [BISANTRENE]				> 30	
CC(C)NCC(O)COc1ccc(COCCOC(C)C)cc1 (configuration not stated) [BISOPROLOL]	> 10		> 10		AC50 [6]: > 30 µM
COc1cc(Nc2c(C#N)cnc3cc(OCCCN4CCN(C)CC4)c(OC)cc23)c(Cl)cc1Cl [BOSUTINIB]	> 10	> 10	> 10		
CCO/N=C(\C(=O)N[C@@H]1C(=O)N2C(C(=O)[O-])=C(Sc3nc(-c4cc[n+](C)cc4)cs3)CS[C@H]12)c1nsc(N)n1 [CEFTAROLINE]				> 30	
CCC[C@@H]1C[C@@H](C(=O)N[C@@H]([C@H]2O[C@H](SC)[C@H](O)[C@@H](O)[C@H]2O)[C@H](C)Cl)N(C)C1 [CLINDAMYCIN]	> 10		> 10		AC50 [8]: > 10 µM
CN(C)CCCN1c2ccccc2CCc2ccc(Cl)cc21 [CLOMIPRAMINE]			> 10		
CN(CCOc1ccc(NS(C)(=O)=O)cc1)CCc1ccc(NS(C)(=O)=O)cc1 [DOFETILIDE]	> 10		> 10		AC50 [8]: > 10 µM
COc1cc2c(cc1OC)C(=O)C(CC1CCN(Cc3ccccc3)CC1)C2 (configuration not stated) [DONEPEZIL]	> 10	> 10		> 30	AC50 [6]: > 30 µM
C#C[C@]1(O)CC[C@H]2[C@@H]3CCc4cc(O)ccc4[C@H]3CC[C@@]21C [ETHINYL ESTRADIOL]	> 10		> 10		AC50 [8]: > 10 µM
NC(N)=Nc1nc(CSCCC(N)=NS(N)(=O)=O)cs1 [FAMOTIDINE]	> 10	> 10	> 10		

SMILES	AC50 [2] [µM]	AC50 [3] [µM]	AC50 [4] [µM]	AC50 [5] [µM]	other results
CCC(=O)c1c(O)cc(O)cc1O [FLOPROPIONE]				> 30	
C[C@@H]1O[C@@H]1P(=O)(O)O [FOSFOMYCIN]					AC50 [6]: > 30 µM
COc1ccc2c(c1)C(=O)N(CCc1ccc(S(=O)(=O)NC(=O)NC3CCCCC3)cc1)C(=O)C2(C)C [GLIQUIDONE]					AC50 [1]: > 30 µM
NS(=O)(=O)c1cc2c(cc1Cl)NCNS2(=O)=O [HYDROCHLOROTHIAZIDE]	> 10	> 10	> 10		
C[C@H]1C[C@@H]2[C@H]([C@@H](O)C[C@@]3(C)[C@H]2CC[C@]3(O)C(=O)CO)[C@@]2(C)C=CC(=O)C=C12 [METHYLPREDNISOLONE]					AC50 [6]: > 30 µM
CCN(CC)CCNC(=O)c1cc(Cl)c(N)cc1OC [METOCLOPRAMIDE]	> 10		> 10		AC50 [8]: > 10 µM
CCc1nn(CCCN2CCN(c3cccc(Cl)c3)CC2)c(=O)n1CCOc1ccccc1 [NEFAZODONE]		> 10	0.254		
OCCN1CCN(CCCN2c3ccccc3C=Cc3ccccc32)CC1 [OPIPRAMOL]	2.24				
NC1=NC(=O)C(c2ccccc2)O1 (configuration not stated) [PEMOLINE]			> 10		
CCc1ccc(CCOc2ccc(CC3SC(=O)NC3=O)cc2)nc1 (configuration not stated) [PIOGLITAZONE]	> 10	> 10	> 10		
CC(C(=O)O)c1ccc(N2CC=CC2)c(Cl)c1 (configuration not stated) [PIRPROFEN]	> 10		> 10	> 30	AC50 [8]: > 10 µM; AC50 [6]: > 30 µM
NC(=O)c1cnccn1 [PYRAZINAMIDE]	> 10	> 10	> 10		
CC(C)OC(=O)[C@H](C)N[P@](=O)(OC[C@H]1O[C@@H](n2ccc(=O)[nH]c2=O)[C@](C)(F)[C@@H]1O)Oc1ccccc1 [SOFOSBUVIR]				> 30	
Cc1ccc(O)c2ncccc12 [TILIQUINOL]				> 30	
CC(=O)OC[C@H]1O[C@@H](n2ccc(=O)[nH]c2=O)[C@H](OC(C)=O)[C@@H]1OC(C)=O [URIDINE TRIACETATE]				> 30	
CCCS(=O)(=O)Nc1ccc(F)c(C(=O)c2c[nH]c3ncc(-c4ccc(Cl)cc4)cc23)c1F [VEMURAFENIB]					AC50 [1]: > 30 µM
CCOC(=O)N[C@@H]1CC[C@@H]2[C@@H](C1)C[C@H]1C(=O)O[C@H](C)[C@H]1[C@H]2/C=C/c1ccc(-c2cccc(F)c2)cn1 [VORAPAXAR]				> 30	
O=C(CCCCCCC(=O)Nc1ccccc1)NO [VORINOSTAT]	> 10	> 10	> 10		
